# Experimental data published in PubChem BioAssay (NCI).
#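 Briefly, cells in 96-well plates were exposed to five compound concentrations for 48 h, and endpoints were estimated by linear interpolation. GI50 marks 50% less growth. TGI: concentration producing complete growth inhibition.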
# Legend:
# Experiment in all cases: NCI anticancer screen, dose series, 48 h
# BT-549 breast = tested on: BT-549 breast
# HCC-2998 colon = tested on: HCC-2998 colon
# SNB-19 CNS = tested on: SNB-19 CNS
# TK-10 renal = tested on: TK-10 renal
# SW-620 colon = tested on: SW-620 colon
# SF-295 CNS = tested on: SF-295 CNS
# NCI-H23 lung = tested on: NCI-H23 lung
# UACC-257 melanoma = tested on: UACC-257 melanoma
# NCI-H522 lung = tested on: NCI-H522 lung
# SK-MEL-2 melanoma = tested on: SK-MEL-2 melanoma
# KM12 colon = tested on: KM12 colon
# IGROV1 ovarian = tested on: IGROV1 ovarian
# LOX IMVI melanoma = tested on: LOX IMVI melanoma
# MOLT-4 leukemia = tested on: MOLT-4 leukemia
# CCRF-CEM leukemia = tested on: CCRF-CEM leukemia
# CAKI-1 renal = tested on: CAKI-1 renal
# MALME-3M melanoma = tested on: MALME-3M melanoma
# HCT-116 colon = tested on: HCT-116 colon
# EKVX NSCLC = tested on: EKVX NSCLC
# HCT-15 colon = tested on: HCT-15 colon
# UO-31 renal = tested on: UO-31 renal
# NCI-H226 lung = tested on: NCI-H226 lung
# UACC-62 melanoma = tested on: UACC-62 melanoma
# MCF7 breast = tested on: MCF7 breast
# OVCAR-8 ovarian = tested on: OVCAR-8 ovarian
# RXF 393 renal = tested on: RXF 393 renal
# U251 CNS = tested on: U251 CNS
# SF-268 CNS = tested on: SF-268 CNS
# A549 NSCLC = tested on: A549 NSCLC
# NCI/ADR-RES ovarian = tested on: NCI/ADR-RES ovarian
# MDA-MB-435 = tested on: MDA-MB-435
# ACHN renal = tested on: ACHN renal
# OVCAR-4 ovarian = tested on: OVCAR-4 ovarian
# SR leukemia = tested on: SR leukemia
# SK-MEL-28 melanoma = tested on: SK-MEL-28 melanoma
# M14 melanoma = tested on: M14 melanoma
# HOP-62 NSCLC = tested on: HOP-62 NSCLC
# HT29 colon = tested on: HT29 colon
# OVCAR-5 ovarian = tested on: OVCAR-5 ovarian
# SNB-75 CNS = tested on: SNB-75 CNS
# RPMI-8226 leukemia = tested on: RPMI-8226 leukemia
# 786-0 renal = tested on: 786-0 renal
# HS 578T breast = tested on: HS 578T breast
# K-562 leukemia = tested on: K-562 leukemia
# A498 renal = tested on: A498 renal
# NCI-H460 lung = tested on: NCI-H460 lung
# SF-539 CNS = tested on: SF-539 CNS
# HOP-92 NSCLC = tested on: HOP-92 NSCLC
# SN12C renal = tested on: SN12C renal
# SK-MEL-5 melanoma = tested on: SK-MEL-5 melanoma
# DU-145 prostate = tested on: DU-145 prostate
# MDA-MB-231 breast = tested on: MDA-MB-231 breast
# T-47D breast = tested on: T-47D breast
smiles,measurement,setting,value
COc1cc(/C=N/n2cnc3oc(-c4ccccc4)cc3c2=N)cc(CN2CCCCC2)c1O,GI50,BT-549 breast,2120 nM
same,TGI,BT-549 breast,4190 nM
same,GI50,HCC-2998 colon,1850 nM
same,TGI,HCC-2998 colon,3340 nM
same,GI50,SNB-19 CNS,1980 nM
same,TGI,SNB-19 CNS,3730 nM
same,GI50,TK-10 renal,1910 nM
same,TGI,TK-10 renal,3460 nM
same,GI50,SW-620 colon,1910 nM
same,TGI,SW-620 colon,3760 nM
same,GI50,SF-295 CNS,1830 nM
same,TGI,SF-295 CNS,3390 nM
same,GI50,NCI-H23 lung,1810 nM
same,TGI,NCI-H23 lung,3570 nM
same,GI50,UACC-257 melanoma,1930 nM
same,TGI,UACC-257 melanoma,3880 nM
same,GI50,NCI-H522 lung,2010 nM
same,TGI,NCI-H522 lung,4510 nM
same,GI50,SK-MEL-2 melanoma,1790 nM
same,TGI,SK-MEL-2 melanoma,3660 nM
same,GI50,KM12 colon,1810 nM
same,TGI,KM12 colon,3390 nM
same,GI50,IGROV1 ovarian,1690 nM
same,TGI,IGROV1 ovarian,3350 nM
same,GI50,LOX IMVI melanoma,444 nM
same,TGI,LOX IMVI melanoma,1520 nM
same,GI50,MOLT-4 leukemia,2250 nM
same,TGI,MOLT-4 leukemia,6570 nM
same,GI50,CCRF-CEM leukemia,324 nM
same,TGI,CCRF-CEM leukemia,1250 nM
same,GI50,CAKI-1 renal,1430 nM
same,TGI,CAKI-1 renal,2770 nM
same,GI50,MALME-3M melanoma,1790 nM
same,TGI,MALME-3M melanoma,3720 nM
same,GI50,HCT-116 colon,310 nM
same,TGI,HCT-116 colon,959 nM
same,GI50,EKVX NSCLC,1890 nM
same,TGI,EKVX NSCLC,3680 nM
same,GI50,HCT-15 colon,1770 nM
same,TGI,HCT-15 colon,3490 nM
same,GI50,UO-31 renal,1390 nM
same,TGI,UO-31 renal,2920 nM
same,GI50,NCI-H226 lung,2010 nM
same,TGI,NCI-H226 lung,4550 nM
same,GI50,UACC-62 melanoma,1830 nM
same,TGI,UACC-62 melanoma,3350 nM
same,GI50,MCF7 breast,512 nM
same,TGI,MCF7 breast,1990 nM
same,GI50,OVCAR-8 ovarian,1950 nM
same,TGI,OVCAR-8 ovarian,4700 nM
same,GI50,RXF 393 renal,1410 nM
same,TGI,RXF 393 renal,3150 nM
same,GI50,U251 CNS,1830 nM
same,TGI,U251 CNS,3600 nM
same,GI50,SF-268 CNS,1970 nM
same,TGI,SF-268 CNS,4030 nM
same,GI50,A549 NSCLC,1700 nM
same,TGI,A549 NSCLC,3450 nM
same,GI50,NCI/ADR-RES ovarian,2140 nM
same,TGI,NCI/ADR-RES ovarian,4910 nM
same,GI50,MDA-MB-435,1640 nM
same,TGI,MDA-MB-435,3060 nM
same,GI50,ACHN renal,1360 nM
same,TGI,ACHN renal,2670 nM
same,GI50,OVCAR-4 ovarian,1750 nM
same,TGI,OVCAR-4 ovarian,3670 nM
same,GI50,SR leukemia,247 nM
same,TGI,SR leukemia,687 nM
same,GI50,SK-MEL-28 melanoma,1630 nM
same,TGI,SK-MEL-28 melanoma,3250 nM
same,GI50,M14 melanoma,1560 nM
same,TGI,M14 melanoma,3180 nM
same,GI50,HOP-62 NSCLC,1790 nM
same,TGI,HOP-62 NSCLC,3770 nM
same,GI50,HT29 colon,489 nM
same,TGI,HT29 colon,1790 nM
same,GI50,OVCAR-5 ovarian,1890 nM
same,TGI,OVCAR-5 ovarian,3460 nM
same,GI50,SNB-75 CNS,1390 nM
same,TGI,SNB-75 CNS,2790 nM
same,GI50,RPMI-8226 leukemia,2130 nM
same,TGI,RPMI-8226 leukemia,5380 nM
same,GI50,786-0 renal,1480 nM
same,TGI,786-0 renal,3030 nM
same,GI50,HS 578T breast,1830 nM
same,TGI,HS 578T breast,4360 nM
same,GI50,K-562 leukemia,201 nM
same,TGI,K-562 leukemia,458 nM
same,GI50,A498 renal,1730 nM
same,TGI,A498 renal,3280 nM
same,GI50,NCI-H460 lung,1430 nM
same,TGI,NCI-H460 lung,3080 nM
same,GI50,SF-539 CNS,1750 nM
same,TGI,SF-539 CNS,3330 nM
same,GI50,HOP-92 NSCLC,1480 nM
same,TGI,HOP-92 NSCLC,3280 nM
same,GI50,SN12C renal,1550 nM
same,TGI,SN12C renal,3210 nM
same,GI50,SK-MEL-5 melanoma,1760 nM
same,TGI,SK-MEL-5 melanoma,3170 nM
same,GI50,DU-145 prostate,1800 nM
same,TGI,DU-145 prostate,3320 nM
same,GI50,MDA-MB-231 breast,1640 nM
same,TGI,MDA-MB-231 breast,3350 nM
same,GI50,T-47D breast,2040 nM
same,TGI,T-47D breast,4620 nM
